# Test results published in article PMC9698773, “Design, Synthesis, Molecular Modeling, and Anticancer Evaluation of New VEGFR-2 Inhibitors Based on the Indolin-2-One Scaffold” (Pharmaceuticals, 2022).
# Where “and” joins values, the source holds several entries; their conditions need not be identical. Identical values can stand only once.
# Test system: caspase-3
# Assay: Caspase-3 expression assay (quantitative real-time PCR)
# Type: cell-based, human
# Details: HepG2, 1.13 µM, 24 h; control = 1
# Procedure: The gene expression fold change of caspase-3 and -9 in the HepG2 cells treated with 1.13 µM of compound 17a for 24 h was determined using quantitative real-time PCR analysis.
# The expression of caspase-3 and -9 in the liver HepG2 cells treated with 1.13 μM of 17a was determined using quantitative real-time PCR analysis, as presented in the Supplementary Materials.
# Pharmaceuticals 2022, 15, x FOR PEER REVIEW 3 of 22
# Figure S1. Simple linear regression for the correlation between cytotoxicity against HepG2 cell line […]
# Figure S2. Simple linear regression for the correlation between cytotoxicity against MCF‐7 cell line […]
# 4.2.3. Cell cycle analysis
# To determine the role of the synthesized compounds in cell cycle distribution, cell cycle analysis was performed using propidium iodide (PI) staining and flow cytometry analysis for compound 17a. […] The stained cells were measured using a BD FACSCalibur™ Flow Cytometer, and the data were analyzed using Flowing software (version 2.5.1, Turku Centre for Biotech‐ […]
# Flow cytometry cell apoptosis analysis was used to investigate the apoptotic effect of the synthesized compounds. […] The stained cells were measured using a BD FACSCalibur™ Flow Cytometer and analyzed using Flowing software. […]
# The expression of BAX and Bcl‐2 proteins were determined using Western blot anal‐ ysis. […]
structure (smiles),measurement,value
"O=C1Nc2ccccc2C1=Nc1ccc(C(=O)NNC(=S)Nc2ccccc2)cc1 [Compound 17a, 2-(4-((2-Oxoindolin-3-ylidene)amino)benzoyl)-N-phenylhydrazinecarbothioamide]",Gene Expression Fold Change (Normalized to β-Actin) Caspases-3,6.88 fold and 6.9 fold and 6.889 fold
